Assay results published in patent US9340549B2, “Oxazolidinone compounds and derivatives thereof” (priority 2012, dated 2016).
Read-outs that look alike come from different tables or passages of the source.

Tests used:
[1] = molecular target: 6×HIS-tankyrase 1 (1091-1325) (Homo sapiens (Human), UniProt O95271); experiment: biochemical; type: biochemical; conditions: 400 nM NAD, 60 minutes at room temperature, read-out: TNKS1 IP IC50
[2] = tested on: total β-catenin in SW480 colorectal cells; experiment: cells; type: cell-based; conditions: Homo sapiens
Protocol: Total β-Catenin MSD 96-Well Plate Assay for SW480 Cells
SW480 colorectal cells were seeded at a density of 10,000/well in CellBIND 96-well plates (Corning catalog no. 3300) in 60 μL of normal growth medium (MEM alpha supplemented with 10% heat inactivated FBS, GlutaMAX, pyruvate, and 10 mM HEPES).
A 10-point, 3-fold dilution series for each TNKS inhibitor was constructed in a 96-well “stock” plate. […] The plates were incubated at 37° C. for 40 to 48 hours. The media was removed from the CellBIND plate via plate inversion and gentle shaking and the inverted plate was touched to a paper towel and immediately placed on ice. […] Plates containing cell lysates were sealed and shaken for one hour at 4° C. and then quickly frozen in a −80° C. for approximately 15 to 30 minutes followed by gradually thawing at 4° C. Finally, lysate containing plates were centrifuged @1000×g (2073 rpm) for 10 minutes at 4° C.
The sealed MSD plate was incubated overnight in a cold room with gentle shaking. The MSD plate was then blocked with 150 μL of Blocker “A” per well and incubated overnight at 4° C. with vigorous shaking. The blocked MSD plate was washed 4 times with 150 μL/well TBS-T wash buffer (150 mM NaCl, 50 mM Tris, pH 7.5, 0.02% Tween-20). Cell lysates (75 μL) were transferred to prepared MSD plates and incubated at 4° C. ON with gentle shaking. […] The detection antibody was incubated for 1 hour at room temperature with vigorous shaking after which plates were washed 3 times with 150 μL/well TBS-T wash buffer. Plates were processed for analysis by the addition of 150 μL/well MSD Read 4× Buffer T with surfactant (catalog no. R92TC-2; diluted 1:3 in deionized water) and were read on the SECTOR Imager 6000.

Axin2 in SW480 cells = experiment: cells; type: cell-based; conditions: Homo sapiens, read-out: Axin2 384 IF EC50 IP
Protocol: Using a VPrep, 10 μL of compound/controls was transferred from the compound plate to 60 μL in the cell plate (final 0.5% DMSO, 70 μL). The mixture was incubated for 24 hours at 37° C. at 5% CO2.
The extra media was tapped out. 50 μL of 4% paraformaldehyde (Fisher, AA433689M), 0.1% Triton (Sigma, X100-100 ML) in PBS were added, and the mixture was incubated for 15 minutes at room temperature. […] The extra media was tapped out and to this was added 50 μL of buffer containing Axin2 Antibody (Sigma, SAB1100677-200 µL) at 1:10000 in PBS, 0.1% Tween-20, 1% Normal Goat Serum. The mixture was incubated for 2 hours at room temperature or overnight at 4° C. The cells were then washed twice with PBS, 0.1% Tween-20, and 1% Normal Goat Serum. […] The mixture was then incubated for 30 minutes at room temperature. The cells were then washed twice with PBS, 0.1% Tween-20, and 1% Normal Goat Serum. 50-100 μL PBS was added, and the mixture was covered with a plate seal (Fisher, NC9425162). An ArrayScan (a variation of the compartmental analysis protocol was optimized) was used to scan the plates, and data was analyzed using MEAN_RingSpotAvgIntenCh2). The Axin2 accumulation POC was calculated, and the EC50 was determined using Genedata Screener software to report Axin2 activity.

[3] = SW480, read-out: SW480-Total β-Catenin IC50 IP
[4] = SW480 cells, 40 to 48 hours, top concentration 10 μM, read-out: SW480-Total β-Catenin IC50 IP
[5] = SW480, 24 h, SW480 cells, 24 hours

Sequence of 6×HIS-tankyrase 1 (1091-1325) (O95271 1091-1325): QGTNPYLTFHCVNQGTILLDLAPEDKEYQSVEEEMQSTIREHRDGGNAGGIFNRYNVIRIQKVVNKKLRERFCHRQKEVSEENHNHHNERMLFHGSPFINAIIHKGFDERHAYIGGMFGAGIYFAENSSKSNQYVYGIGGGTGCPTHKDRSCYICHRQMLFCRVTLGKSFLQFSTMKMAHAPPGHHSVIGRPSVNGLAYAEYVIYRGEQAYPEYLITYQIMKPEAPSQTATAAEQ

In the case of `CC1(C)OC(=O)N([C@H]2CC[C@H](c3cc(-c4ncccn4)c[nH]c3=O)CC2)C1c1ccccc1` (mixture of isomers) [Example 7, (+/−)-3-(trans-4-((4S/R)-5,5-Dimethyl-2-oxo-4-phenyl-1,3-oxazolidin-3-yl)cyclohexyl)-5-(2-pyrimidinyl)-2(1H)-pyridinone], the IC50 ([1]; 0.25 nM enzyme) is reported as 31.8 nM, the IC50 [2, 3] is reported as 695 nM and the EC50 (Axin2 in SW480 cells; SW480, 24 h) is reported as 1460 nM.

Work on `COc1cccc(C2N(c3ccc(C(=O)Nc4cccc5cccnc45)cc3)C(=O)OC2(C)C)c1` (racemic) [Example 105, (+/−)-(R/S)-4-(4-(3-methoxyphenyl)-5,5-dimethyl-2-oxooxazolidin-3-yl)-N-(quinolin-8-yl)benzamide] yielded an IC50 ([1]; 0.25 nM enzyme) of 152 nM, an IC50 [2, 4] of 3250 nM and an EC50 (Axin2 in SW480 cells; [5]) of 8930 nM.

In the case of `COc1ccc(C2N(c3ccc(C(=O)Nc4cccc5cccnc45)cc3)C(=O)OC2(C)C)cc1` (racemic) [Example 111, (+/−)-(R/S)-4-(4-(4-methoxyphenyl)-5,5-dimethyl-2-oxooxazolidin-3-yl)-N-(quinolin-8-yl)benzamide], the IC50 ([1]; 0.25 nM enzyme) is reported as 631 nM, the IC50 [2, 4] is reported as 2440 nM and the EC50 (Axin2 in SW480 cells; [5]) is reported as 7260 nM.

In the case of `CC1(C)OC(=O)N([C@@H]2CC=C(c3cc(-c4ncccn4)c[nH]c3=O)CC2)[C@H]1c1ccccc1` (single isomer, unassigned) [Example 5], the IC50 ([1]; […] enzyme) is reported as 24.1 nM, the IC50 [2, 4] is reported as 447 nM and the EC50 (Axin2 in SW480 cells; [5]) is reported as 816 nM.

With `CC1(C)OC(=O)N([C@H]2CC=C(c3cc(-c4ncccn4)c[nH]c3=O)CC2)[C@H]1c1ccccc1` (single isomer, unassigned) [Example 6] the IC50 ([1]; […] enzyme) was 46.8 nM, the IC50 [2, 4] was 585 nM and the EC50 (Axin2 in SW480 cells; [5]) was 2660 nM.

For `CC1(C)OC(=O)N([C@H]2CC[C@H](c3cnc4[nH]c(=O)n(-c5ncccn5)c4c3)CC2)[C@@H]1c1ccccc1` (single isomer, unassigned) [Example 14], the IC50 ([1]; […] enzyme) was 26.8 nM, the IC50 [2, 4] was 923 nM and the EC50 (Axin2 in SW480 cells; [5]) was 1030 nM.

`C[C@@]1(c2ccccc2)CN([C@H]2CC[C@H](n3c(=O)[nH]c4cnccc43)CC2)C(=O)O1` (single isomer, unassigned) [Example 90] showed an IC50 ([1]; […] enzyme) of 772 nM, an IC50 [2, 4] of over 10000 nM and an EC50 (Axin2 in SW480 cells; [5]) of over 25000 nM.

`C[C@]1(c2ccccc2)CN([C@H]2CC[C@H](n3c(=O)[nH]c4cnccc43)CC2)C(=O)O1` (single isomer, unassigned) [Example 91] was tested, and the IC50 ([1]; […] enzyme) was 9.01 nM, the IC50 [2, 4] was 3610 nM and the EC50 (Axin2 in SW480 cells; [5]) was 4430 nM.

`CC1(C)OC(=O)N(c2ccc(-c3cnc(N)c(-c4cnnc(Cl)c4)c3)cc2)[C@H]1c1ccccc1` (single isomer, unassigned) [Example 101] gave an IC50 ([1]; […] enzyme) of 16.2 nM, an IC50 [2, 4] of 210 nM and an EC50 (Axin2 in SW480 cells; [5]) of 197 nM.

Work on `CC1(C)OC(=O)N(c2ccc(C(=O)Nc3cccc4cccnc34)cc2)[C@H]1c1ccc(F)cc1` [Example 2, (S)-4-(4-(4-fluorophenyl)-5,5-dimethyl-2-oxooxazolidin-3-yl)-N-(quinolin-8-yl)benzamide] yielded an IC50 ([1]; […] enzyme) of 307 nM, an IC50 [2, 4] of 1960 nM and an EC50 (Axin2 in SW480 cells; [5]) of 5480 nM.

`CC1(C)OC(=O)N(c2ccc(-c3cc(-c4ncccn4)cnc3F)cc2)[C@H]1c1ccccc1` [Example 3, (S)-3-(4-(2-Fluoro-5-(pyrimidin-2-yl)pyridin-3-yl)phenyl)-5,5-dimethyl-4-phenyloxazolidin-2-one] was tested, and the IC50 ([1]; […] enzyme) was 378 nM, the IC50 [2, 4] was 1750 nM and the EC50 (Axin2 in SW480 cells; [5]) was over 25000 nM.

For `CC1(C)OC(=O)N(c2ccc(C(=O)Nc3cccc4cccnc34)cc2)[C@H]1c1cccnc1` [Example 11, (S)-4-(5,5-dimethyl-2-oxo-4-(pyridin-3-yl)oxazolidin-3-yl)-N-(quinolin-8-yl)benzamide], the IC50 ([1]; […] enzyme) was 392 nM, the IC50 [2, 4] was 1520 nM and the EC50 (Axin2 in SW480 cells; [5]) was 7060 nM.

`CC1(C)OC(=O)N([C@H]2CC[C@H](c3cnc(N)c(Nc4ncccn4)c3)CC2)[C@@H]1c1ccccc1` [Example 13, (S)-3-((1r,4S)-4-(6-Amino-5-(pyrimidin-2-ylamino)pyridin-3-yl)cyclohexyl)-5,5-dimethyl-4-phenyloxazolidin-2-one] gave an IC50 ([1]; […] enzyme) of 2060 nM, an IC50 [2, 4] of over 10000 nM and an EC50 (Axin2 in SW480 cells; [5]) of over 25000 nM.

`CC1(C)OC(=O)N(c2ccc(-n3c(=O)[nH]c4cnccc43)cc2)[C@H]1c1ccccc1` [Example 16, (S)-5,5-dimethyl-3-(4-(2-oxo-2,3-dihydro-1H-imidazo[4,5-c]pyridin-1-yl)phenyl)-4-phenyloxazolidin-2-one] gave an IC50 ([1]; […] enzyme) of 114 nM, an IC50 [2, 4] of 2540 nM and an EC50 (Axin2 in SW480 cells; [5]) of 8190 nM.

`CC1(C)OC(=O)N(c2ccc(-n3c(=O)oc4ccccc43)cc2)[C@H]1c1ccccc1` [Example 17, (S)-3-(4-(5,5-dimethyl-2-oxo-4-phenyloxazolidin-3-yl)phenyl)benzo[d]oxazol-2(3H)-one] gave an IC50 ([1]; […] enzyme) of 2820 nM, an IC50 [2, 4] of over 10000 nM and an EC50 (Axin2 in SW480 cells; [5]) of over 25000 nM.

In the case of `CC1(C)OC(=O)N([C@H]2CC[C@H](n3c(=O)[nH]c4cncnc43)CC2)[C@H]1c1ccccc1` [Example 50, (S)-5,5-dimethyl-3-((1r,4S)-4-(8-oxo-7H-purin-9(8H)-yl)cyclohexyl)-4-phenyloxazolidin-2-one], the IC50 [2, 4] is reported as 292 nM and the EC50 (Axin2 in SW480 cells; [5]) is reported as 391 nM.

In the case of `CC1(C)OC(=O)N([C@H]2CC[C@H](n3c(=O)[nH]c4c(C#N)cccc43)CC2)[C@H]1c1ccccc1` [Example 51, 1-((1S,4r)-4-((S)-5,5-dimethyl-2-oxo-4-phenyloxazolidin-3-yl)cyclohexyl)-2-oxo-2,3-dihydro-1H-benzo[d]imidazole-4-carbonitrile], the IC50 [2, 4] is reported as 274 nM and the EC50 (Axin2 in SW480 cells; SW480 cells, 24 hours) is reported as 454 nM.

`CC1(C)OC(=O)N([C@H]2CC[C@H](n3c(=O)[nH]c4cc(Br)cnc43)CC2)[C@H]1c1ccccc1` [Example 56, (S)-3-((1r,4S)-4-(6-bromo-2-oxo-1H-imidazo[4,5-b]pyridin-3(2H)-yl)cyclohexyl)-5,5-dimethyl-4-phenyloxazolidin-2-one] was tested, and the IC50 [2, 4] was 651 nM and the EC50 (Axin2 in SW480 cells; SW480 cells, 24 hours) was 676 nM.

Molecule `CC1(C)OC(=O)N([C@H]2CC[C@H](n3c(=O)[nH]c4cc(C#N)cnc43)CC2)[C@H]1c1ccccc1` [Example 57, 3-((1S,4r)-4-((S)-5,5-dimethyl-2-oxo-4-phenyloxazolidin-3-yl)cyclohexyl)-2-oxo-2,3-dihydro-1H-imidazo[4,5-b]pyridine-6-carbonitrile] has an IC50 [2, 4] of 172 nM and an EC50 (Axin2 in SW480 cells; SW480 cells, 24 hours) of 795 nM.

`CC1(C)OC(=O)N([C@H]2CC[C@H](n3c(=O)[nH]c4c(F)c(C#N)ccc43)CC2)[C@H]1c1ccccc1` [Example 60, 1-((1S,4r)-4-((S)-5,5-dimethyl-2-oxo-4-phenyloxazolidin-3-yl)cyclohexyl)-4-fluoro-2-oxo-2,3-dihydro-1H-benzo[d]imidazole-5-carbonitrile] was tested, and the IC50 [2, 4] was 75.4 nM and the EC50 (Axin2 in SW480 cells; SW480 cells, 24 hours) was 61.4 nM.

Work on `CC1(C)OC(=O)N([C@H]2CC[C@H](c3cnc(N)c(-c4ncccn4)c3)CC2)[C@H]1c1ccccc1` [Example 74, (S)-3-((1r,4S)-4-(6-amino-5-(pyrimidin-2-yl)pyridin-3-yl)cyclohexyl)-5,5-dimethyl-4-phenyloxazolidin-2-one] yielded an IC50 [2, 3] of 90.8 nM and an EC50 (Axin2 in SW480 cells; SW480, 24 h) of 51.9 nM.

With `CC1(C)OC(=O)N([C@H]2CC[C@H](c3cnc(N)c(-c4ncccn4)c3)CC2)[C@@H]1c1ccccc1` [Example 75, (R)-3-((1r,4R)-4-(6-amino-5-(pyrimidin-2-yl)pyridin-3-yl)cyclohexyl)-5,5-dimethyl-4-phenyloxazolidin-2-one] the IC50 [2, 3] was 1580 nM and the EC50 (Axin2 in SW480 cells; SW480, 24 h) was 2680 nM.

`CC1(C)OC(=O)N(c2ccc(-c3cc(-c4ncco4)c[nH]c3=O)cc2)[C@H]1c1ccccc1` [Example 116, (S)-5,5-dimethyl-3-(4-(5-(oxazol-2-yl)-2-oxo-1,2-dihydropyridin-3-yl)phenyl)-4-phenyloxazolidin-2-one] showed an IC50 [2, 4] of 906 nM and an EC50 (Axin2 in SW480 cells; [5]) of over 6250 nM.
